According to ChEMBL document CHEMBL1155917, “Use of the nitrile oxide cycloaddition (NOC) reaction for molecular probe generation: a new class of enzyme selective histone deacetylase inhibitors (HDACIs) showing picomolar activity at HDAC6” (J Med Chem, 2008):

Columns and labels:
Histone deacetylase 8 = biological target: T1, Histone deacetylase 8 (Homo sapiens, UniProt Q9BY41)
T1 sequence (Q9BY41 whole entry): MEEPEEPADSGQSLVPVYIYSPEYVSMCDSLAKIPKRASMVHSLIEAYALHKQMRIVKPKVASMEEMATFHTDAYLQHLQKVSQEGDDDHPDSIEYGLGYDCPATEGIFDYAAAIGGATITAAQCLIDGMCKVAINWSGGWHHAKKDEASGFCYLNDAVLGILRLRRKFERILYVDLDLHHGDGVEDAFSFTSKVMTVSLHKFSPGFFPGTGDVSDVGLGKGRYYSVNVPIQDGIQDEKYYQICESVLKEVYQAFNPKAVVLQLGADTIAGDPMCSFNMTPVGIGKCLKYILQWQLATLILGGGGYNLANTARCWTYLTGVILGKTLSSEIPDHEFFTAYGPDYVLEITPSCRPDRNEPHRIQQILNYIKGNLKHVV
Description: Inhibition of HDAC8 after 17 hrs

BXPC-3 = experiment: Antiproliferative activity against human BxPC3 cells after 72 hrs by MTT assay; type: functional, cell-based; conditions: BXPC-3, 72 h
Histone deacetylase 3 = Histone deacetylase 3 (Homo sapiens, UniProt O15379); experiment: Inhibition of HDAC3 after 17 hrs
Sequence of Histone deacetylase 3 (O15379 whole entry): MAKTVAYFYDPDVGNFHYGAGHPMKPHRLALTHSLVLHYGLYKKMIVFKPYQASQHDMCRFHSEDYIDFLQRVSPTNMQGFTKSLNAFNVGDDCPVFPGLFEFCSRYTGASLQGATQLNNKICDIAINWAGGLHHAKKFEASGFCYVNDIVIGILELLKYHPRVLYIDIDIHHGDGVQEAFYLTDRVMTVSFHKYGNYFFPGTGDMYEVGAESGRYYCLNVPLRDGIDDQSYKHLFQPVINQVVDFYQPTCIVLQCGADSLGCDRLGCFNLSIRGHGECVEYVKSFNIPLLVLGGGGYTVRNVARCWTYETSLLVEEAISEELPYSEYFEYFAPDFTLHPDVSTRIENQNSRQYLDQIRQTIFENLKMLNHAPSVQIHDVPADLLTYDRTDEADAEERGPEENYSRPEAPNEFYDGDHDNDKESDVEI

Histone deacetylase 1 = Histone deacetylase 1 (Homo sapiens, UniProt Q13547)
Sequence of Histone deacetylase 1 (Q13547 whole entry): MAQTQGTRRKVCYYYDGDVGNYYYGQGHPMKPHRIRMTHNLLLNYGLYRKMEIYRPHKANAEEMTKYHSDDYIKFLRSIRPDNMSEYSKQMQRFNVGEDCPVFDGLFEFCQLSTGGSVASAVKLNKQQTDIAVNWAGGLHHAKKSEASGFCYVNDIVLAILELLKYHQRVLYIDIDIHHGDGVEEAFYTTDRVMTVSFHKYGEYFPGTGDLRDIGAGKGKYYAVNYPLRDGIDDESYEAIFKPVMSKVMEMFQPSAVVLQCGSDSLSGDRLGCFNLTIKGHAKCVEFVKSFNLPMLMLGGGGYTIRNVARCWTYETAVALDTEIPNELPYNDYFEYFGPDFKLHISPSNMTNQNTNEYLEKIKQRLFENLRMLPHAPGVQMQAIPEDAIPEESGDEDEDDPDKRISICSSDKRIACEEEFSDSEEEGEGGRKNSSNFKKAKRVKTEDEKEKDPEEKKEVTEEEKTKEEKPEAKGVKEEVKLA
Description: Inhibition of HDAC1 after 17 hrs

[1] = Antiproliferative activity against human Panc04.03 cells after 72 hrs by MTT assay; type: functional, cell-based; conditions: Panc 04.03, 72 h
MIA PaCa-2 = experiment: Antiproliferative activity against human MiaPaca2 cells after 72 hrs by MTT assay; type: functional, cell-based; conditions: MIA PaCa-2, 72 h
Histone deacetylase 2 = Histone deacetylase 2 (Homo sapiens, UniProt Q92769); experiment: Inhibition of HDAC2 after 17 hrs
Sequence of Histone deacetylase 2 (Q92769 whole entry): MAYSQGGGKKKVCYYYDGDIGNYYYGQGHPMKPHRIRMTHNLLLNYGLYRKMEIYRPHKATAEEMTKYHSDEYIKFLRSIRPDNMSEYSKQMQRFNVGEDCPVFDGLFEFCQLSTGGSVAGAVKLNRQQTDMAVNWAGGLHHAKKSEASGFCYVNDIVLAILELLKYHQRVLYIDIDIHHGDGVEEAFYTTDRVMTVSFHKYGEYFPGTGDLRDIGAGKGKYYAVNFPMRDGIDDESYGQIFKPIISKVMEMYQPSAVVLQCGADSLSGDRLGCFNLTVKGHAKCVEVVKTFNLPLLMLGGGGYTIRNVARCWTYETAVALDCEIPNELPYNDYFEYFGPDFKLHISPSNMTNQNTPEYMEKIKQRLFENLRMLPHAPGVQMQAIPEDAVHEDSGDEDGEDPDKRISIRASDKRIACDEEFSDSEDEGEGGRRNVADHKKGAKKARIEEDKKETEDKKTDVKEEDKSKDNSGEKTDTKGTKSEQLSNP

[2] = biological target: T2, Protein deacetylase HDAC6 (Homo sapiens, UniProt Q9UBN7); experiment: Inhibition of HDAC6 after 17 hrs
T2 sequence (Q9UBN7 whole entry): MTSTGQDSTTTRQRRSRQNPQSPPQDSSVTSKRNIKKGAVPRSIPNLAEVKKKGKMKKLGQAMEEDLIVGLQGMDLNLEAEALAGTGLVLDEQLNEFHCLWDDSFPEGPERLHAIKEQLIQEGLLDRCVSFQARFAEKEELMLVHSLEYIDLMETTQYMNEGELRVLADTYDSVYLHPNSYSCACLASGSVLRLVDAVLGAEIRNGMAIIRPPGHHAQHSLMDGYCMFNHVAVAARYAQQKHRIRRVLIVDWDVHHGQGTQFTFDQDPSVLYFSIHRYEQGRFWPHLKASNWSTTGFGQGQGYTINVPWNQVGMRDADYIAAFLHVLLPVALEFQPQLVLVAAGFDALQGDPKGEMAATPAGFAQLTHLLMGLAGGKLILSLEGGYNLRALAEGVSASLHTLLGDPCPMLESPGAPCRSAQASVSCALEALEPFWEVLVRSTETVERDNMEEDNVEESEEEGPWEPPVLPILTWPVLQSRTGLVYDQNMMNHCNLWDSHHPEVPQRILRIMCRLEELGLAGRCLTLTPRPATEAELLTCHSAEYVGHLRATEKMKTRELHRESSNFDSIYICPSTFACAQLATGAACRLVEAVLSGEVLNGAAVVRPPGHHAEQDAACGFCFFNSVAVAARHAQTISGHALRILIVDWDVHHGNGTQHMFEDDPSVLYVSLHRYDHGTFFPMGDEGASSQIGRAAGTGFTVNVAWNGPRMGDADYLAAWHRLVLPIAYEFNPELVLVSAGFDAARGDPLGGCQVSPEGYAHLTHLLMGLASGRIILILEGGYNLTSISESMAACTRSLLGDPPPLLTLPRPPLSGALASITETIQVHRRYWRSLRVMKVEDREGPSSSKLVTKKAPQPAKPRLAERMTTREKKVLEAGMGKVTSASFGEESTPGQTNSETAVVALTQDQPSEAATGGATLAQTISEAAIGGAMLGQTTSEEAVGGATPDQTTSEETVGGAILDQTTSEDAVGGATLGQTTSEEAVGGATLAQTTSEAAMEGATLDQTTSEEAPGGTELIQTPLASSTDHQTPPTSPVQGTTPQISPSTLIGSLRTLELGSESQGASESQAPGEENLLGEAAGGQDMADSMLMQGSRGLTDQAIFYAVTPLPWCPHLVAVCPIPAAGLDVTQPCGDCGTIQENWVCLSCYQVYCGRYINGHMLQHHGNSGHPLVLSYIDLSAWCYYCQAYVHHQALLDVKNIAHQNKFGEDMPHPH

[3] = Antiproliferative activity against human SU.86.86 cells after 72 hrs by MTT assay; type: functional, cell-based; conditions: SU.86.86, 72 h
[4] = biological target: T3, Polyamine deacetylase HDAC10 (Homo sapiens, UniProt Q969S8)
T3 sequence (Q969S8 whole entry): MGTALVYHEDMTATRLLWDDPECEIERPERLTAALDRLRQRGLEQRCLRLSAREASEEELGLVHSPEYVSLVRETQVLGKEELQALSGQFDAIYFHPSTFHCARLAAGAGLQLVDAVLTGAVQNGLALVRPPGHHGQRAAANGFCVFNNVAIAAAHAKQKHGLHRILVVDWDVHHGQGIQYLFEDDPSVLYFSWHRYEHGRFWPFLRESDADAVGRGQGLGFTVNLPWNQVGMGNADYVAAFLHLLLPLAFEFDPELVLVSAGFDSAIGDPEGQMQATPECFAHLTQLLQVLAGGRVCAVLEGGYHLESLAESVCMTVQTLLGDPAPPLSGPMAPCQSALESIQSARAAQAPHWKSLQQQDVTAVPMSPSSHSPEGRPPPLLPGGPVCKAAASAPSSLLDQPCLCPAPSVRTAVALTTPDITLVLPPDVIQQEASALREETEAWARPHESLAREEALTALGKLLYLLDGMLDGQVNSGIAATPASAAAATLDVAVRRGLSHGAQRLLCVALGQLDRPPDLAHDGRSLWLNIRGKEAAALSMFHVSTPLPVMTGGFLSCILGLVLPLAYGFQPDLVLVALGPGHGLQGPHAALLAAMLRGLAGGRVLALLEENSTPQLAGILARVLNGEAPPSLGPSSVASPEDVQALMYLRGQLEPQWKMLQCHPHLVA
Description: Inhibition of HDAC10 after 17 hrs

HuP-T3 = experiment: Antiproliferative activity against human HupT3 cells after 72 hrs by MTT assay; type: functional, cell-based; conditions: HuP-T3, 72 h
[5] = Cytotoxicity against HPDE 6c7 cells after 72 hrs by MTT assay; type: ADME, cell-based; conditions: Homo sapiens, HPDE6c7, 72 h
HMEC = experiment: Cytotoxicity against HMEC after 72 hrs by MTT assay; type: ADME, cell-based; conditions: Homo sapiens

IC50 (Histone deacetylase 8)	IC50 (BXPC-3)	IC50 (Histone deacetylase 3)	IC50 (Histone deacetylase 1)	IC50 (MIA PaCa-2)	IC50 (Histone deacetylase 2)	IC50 [2]	IC50 [4]	Compound	IC50 [1]	IC50 [3]	IC50 (HuP-T3)	IC50 [5]	IC50 (HMEC)
3.43 µM	38 µM	144 nM	716 nM	25000 nM	1940 nM	72.2 nM	840 nM	Nc1cccc(-c2cc(C(=O)NCCCCC(=O)NO)no2)c1	> 50 µM	25000 nM	37000 nM	–	–
3.65 µM	25 µM	115 nM	628 nM	12000 nM	1740 nM	31.6 nM	690 nM	CC(C)(C)OC(=O)Nc1ccc(-c2cc(C(=O)NCCCCC(=O)NO)no2)cc1	16 µM	24000 nM	10000 nM	–	–
3.46 µM	0.8 µM	10.2 nM	56.3 nM	100 nM	147 nM	5.86 nM	44.9 nM	Nc1ccc(-c2cc(C(=O)NCCCCCCC(=O)NO)no2)cc1	0.1 µM	800 nM	200 nM	400 nM	< 1000 nM
3.58 µM	28 µM	158 nM	644 nM	4000 nM	1690 nM	61.9 nM	852 nM	O=C(CCCCNC(=O)c1cc(-c2ccccc2)on1)NO	5 µM	5000 nM	5000 nM	–	–
2.83 µM	33 µM	65.8 nM	360 nM	10000 nM	1050 nM	35.1 nM	401 nM	Nc1ccc(-c2cc(C(=O)NCCCCC(=O)NO)no2)cc1	17 µM	11000 nM	7000 nM	–	–
4.9 µM	6 µM	18 nM	64.5 nM	900 nM	131 nM	6.81 nM	73 nM	CC(=O)Nc1ccc(-c2cc(C(=O)NCCCCCCC(=O)NO)no2)cc1	4 µM	1000 nM	1000 nM	–	–
8.1 µM	1 µM	< 0.002 nM	100 nM	700 nM	238 nM	< 0.002 nM	28.2 nM	CC(C)(C)OC(=O)Nc1cccc(-c2cc(C(=O)NCCCCCCC(=O)NO)no2)c1	1 µM	1000 nM	800 nM	1500 nM	7000 nM
5.81 µM	36 µM	83.6 nM	826 nM	8000 nM	2980 nM	3.98 nM	891 nM	CC(C)(C)OC(=O)Nc1cccc(-c2cc(C(=O)NCCCCC(=O)NO)no2)c1	14 µM	22000 nM	14000 nM	–	–
6.85 µM	1 µM	0.42 nM	271 nM	100 nM	252 nM	–	90.7 nM	CC(C)(C)OC(=O)Nc1ccc(-c2cc(C(=O)NCCCCCCC(=O)NO)no2)cc1	0.1 µM	600 nM	300 nM	500 nM	< 1000 nM
3.32 µM	7 µM	12.9 nM	124 nM	1000 nM	133 nM	49.5 nM	155 nM	O=C(CCCCOCc1cc(-c2ccccc2)on1)NO	1.5 µM	1000 nM	400 nM	–	–

Compound	IC50 (Histone deacetylase 8)	IC50 (BXPC-3)	IC50 (Histone deacetylase 3)	IC50 (Histone deacetylase 1)	IC50 (MIA PaCa-2)	IC50 (Histone deacetylase 2)	IC50 [2]	IC50 [4]	IC50 [1]	IC50 [3]	IC50 (HuP-T3)	IC50 [5]	IC50 (HMEC)
Nc1cccc(-c2cc(C(=O)NCCCCCCC(=O)NO)no2)c1	0.938 µM	0.7 µM	4.04 nM	20.7 nM	100 nM	56.7 nM	2.54 nM	17.5 nM	0.9 µM	200 nM	100 nM	200 nM	< 1000 nM
